Data set [1] has as its system rabbit red blood cells (RBCs).
The text on data set [2]:
The solubility of four non-dimethlyamino tetracyclines, with and without Mg^2+, was examined.

In data set [3] the test system is Human umbilical vein endothelial cells (HUVEC). Put plainly: Uptake of minocycline in HUVEC at various Mg/minocycline ratios (LCMS), Example 12. The note with it: 1 mg/mL in saline, 30 min, Mg/minocycline ratios 0-25, FIGS. 6 and 7. It is filed as cell-based. The procedure:
Cells and reagents: Human umbilical vein endothelial cells (HUVEC) were purchased from Lonza and maintained according to manufacturer's recommendations in EGM-2 media. A 10 mg/mL solution of minocycline was prepared in 13.6 mg/mL Na-acetate without addition of Mg. This stock solution was further diluted in saline to 1 mg/mL with addition of Mg in the form of 1 M MgSO4 to generate the following molar ratios of Mg to minocycline: 0, 1, 2.5, 5, 10, 25.
Uptake experimental conditions: HUVECs were seeded at 4.5×10^5 cells/well density in 6-well plates in EGM-2 media. Two days after seeding, cells were washed once with 2 mL of saline, and then 2 mL of 1 mg/mL drug solution in saline prepared as described above was placed in each well in triplicate. Plates were incubated in a CO2 incubator at 37° C. for 30 min. Drug solutions were aspirated and cells were washed once with 2 mL of saline. 0.5 mL of saline was placed in each well and the cell monolayer was scraped using a plastic cell scraper. Cell suspensions were transferred to 1.5 mL plastic tubes and sonicated for 30 sec at maximal power. Cell lysates were spun down for 10 min on a table top microcentrifuge at maximum speed and supernatants were collected. […]

Data set [4] deals with rabbit red blood cells (RBCs). Put plainly: In vitro hemolysis of rabbit red blood cells (in vitro model of venous phlebitis), Example 8. The note with it: Table 29, rabbit RBCs, 2.5 mg/ml minocycline solution, different molar ratios cation:minocycline.

Where two headings read alike, the source gives them in different places.

Regarding `C[C@@H]1[C@H](O)[C@@H](C)/C=C/C=C/C=C/C=C/C=C/C=C/C=C/[C@H](O[C@@H]2O[C@H](C)[C@@H](O)[C@H](N)[C@@H]2O)C[C@@H]2O[C@](O)(C[C@@H](O)C[C@@H](O)[C@H](O)CC[C@@H](O)C[C@@H](O)CC(=O)O[C@H]1C)C[C@H](O)[C@H]2C(=O)O` [Amphoterin B, Amphotericin B], the “Hemolysis of RBCs in solution relative to water” value in data set [1] and in data set [1] (pH 5.85) was 101.31% in each case.
On to `C[C@H]1c2cccc(O)c2C(=O)C2=C(O)[C@]3(O)C(=O)C(C(N)=O)=C(O)[C@@H](N(C)C)[C@@H]3[C@@H](O)[C@@H]21` [Doxycycline], for which the “solubility (text summary of Table 36)” value in data set [2] is reported as “is soluble in the absence of divalent cations, such as Mg^2+, but is insoluble in the presence of divalent cations at low pH”.
Turning to `CN(C)c1ccc(O)c2c1C[C@H]1C[C@H]3[C@H](N(C)C)C(O)=C(C(N)=O)C(=O)[C@@]3(O)C(O)=C1C2=O` [Minocycline], the “intracellular uptake of minocycline” value in data set [3] was “decrease in intracellular uptake of minocycline is observed as the concentration of a divalent cation, such as Mg^2+ increases”.
`CN(C)[C@@H]1C(O)=C(C(N)=O)C(=O)[C@@]2(O)C(O)=C3C(=O)c4c(O)cccc4[C@@](C)(O)[C@H]3[C@H](O)[C@@H]12` [oxytetracycline]: the “solubility (text summary of Table 36)” value in data set [2] is “remains insoluble in the presence of divalent cations, such as Mg^2+, at low pH”.
As for Triton-x, the “Hemolysis of RBCs in solution relative to water” value in data set [4] is reported as 97.82%.
